# Counter-ions that a name gives are not always drawn.
# Assays:
# [1] = test system: Mice With Acrylamide Induced Sensory Neuropathy; test: Tail Flick Test using mice with acrylamide-induced sensory neuropathy; type: in vivo, mouse (male ICR strain); conditions: CDP-choline·Na 100 mg/kg oral once a day for 1 week
# Protocol: Experiment: Tail Flick Test Using Mice With Acrylamide Induced Sensory Neuropathy (In Vivo) (1) Preparation of Mouse With Acrylamide-induced Sensory Neuropathy Acrylamide (2.5 mg/mice) dissolved in injectable physiological saline was intraperitoneally administered to male ICR strain mice (7-week-old, 10 per group) 5 times a week for 1 week to induce sensory neuropathy. (2) Administration of CDP-choline CDP-choline·Na was dissolved in distilled water, and oral administration thereof (100 mg/kg per dose) was started on the same day as acrylamide once a day for 1 week. (3) Tail Flick Test A photothermic stimulation was given to the tail of mouse, and the reaction latency up to the motion of the tail upon sensing the heat was measured. The measurement results of the reaction latency of a control group, an acrylamide administration group and an acrylamide administration group with administration of CDP-choline (100 mg/kg) are shown in FIG. 2.
# [2] = test system: Vincristine-induced Sensory Neuropathy Mouse; test: Tail Flick Test using vincristine-induced sensory neuropathy mouse; type: in vivo, mouse (male ICR strain); conditions: CDP-choline·Na 500 mg/kg oral once a day for 10 weeks
# Protocol: Experiment: Tail Flick Test Using Vincristine-induced Sensory Neuropathy Mouse (In Vivo) (1) Preparation of Mouse with Vincristine-induced Sensory Neuropathy Vincristine (0.05 mg/kg for the first time, 0.125 mg/kg for the second time and the following) dissolved in injectable physiological saline was intraperitoneally administered to male ICR strain mice (7-week-old, 10 per group) twice a week for 10 weeks to induce sensory neuropathy. (2) Administration of CDP-choline CDP-choline·Na was dissolved in distilled water, and oral administration thereof (500 mg/kg per dose) was started on the same day as vincristine once a day for 10 weeks. (3) Tail Flick Test A photothermic stimulation was given to the tail of mouse, and the reaction latency up to the motion of the tail upon sensing the heat was measured. The measurement results of the reaction latency of a control group, a vincristine administration group and a vincristine administration group with administration of CDP-choline (500 mg/kg) are shown in FIG. 1.
compound,measurement,setting,value
"C[N+](C)(C)CCOP(=O)(O)OP(=O)([O-])OC[C@H]1O[C@@H](n2ccc(N)nc2=O)[C@H](O)[C@@H]1O [CDP-choline, cytidine 5′-diphosphocholine-monosodium salt]",suppression of acrylamide-induced sensory neuropathy (hyperesthesia-like symptom),"[1]; started on the same day as acrylamide i.p. 5 times a week, 10 mice per group",almost completely suppressed
same,reaction latency in Tail Flick Test,"[1]; acrylamide-treated mice, compared to control group, FIG. 2",of the same level as the control group
same,suppression of vincristine-induced sensory neuropathy (hyperesthesia-like symptom),"[2]; started on the same day as vincristine i.p. twice a week, 10 mice per group",almost completely suppressed
same,reaction latency in Tail Flick Test,"[2]; vincristine-treated mice, compared to control group, FIG. 1",of the same level as the control group

# Reference: patent US20060094685A1, “Medicinal composition for drug-induced neuropathy” (priority 2002, published 2006)
